This note sets out measurements from patent US20240158394A1, “NEK7 INHIBITORS” (Halia Therapeutics, Inc., priority 2022, published 2024).

SMILES strings stand for the structures. A value given as a limit tells only on which side of the number the result lay.

Broadly, the IC50 is the concentration at which inhibition is half-maximal.

The subject of one assay is IL-1β release. Nature of the assay: IL-1β Release Assay. The conditions noted are these: Homo sapiens; PMA-treated THP-1 cells, 250 ng/mL LPS then 20 μM nigericin; cleaved IL-1β in media. The assay is classed as cell-based. The procedure:
Approximately 1.5 million THP-1 cells were plated in each well of a 6-well TC plate and incubated with 40 nM PMA in RPMI (10% FBS, 1% Penstrep) for 24 hours. The media was then removed, and cells were rested in RPMI (10% FBS, 1% Penstrep) for 24 hours after which time the media was removed and cells were pre-treated for 2 hours with various concentrations of compounds of interest (typically serial 3-fold dilution in RPMI+5% FBS, concentrations ranging from 1 μM to 0.5 nM) in RPMI (5% FBS). The media was again removed, and cells were incubated with 250 ng/mL LPS and compounds of interest (concentrations as above) in RMPI (5% FBS) for 2 hours. The media was removed for a last time and cells were incubated with 20 μM nigericin and compounds of interest (concentrations as above) in Opti-MEM for 30 minutes. Cell media was then collected and the amount of cleaved IL-1β was determined using a JESS instrument (Protein Simple) and standard protocols. Cleaved Il-1β antibody was obtained from Cell Signaling (catalogue #83186S) and was used at 1:20 dilution in antibody diluent 2. Protein Simple 1× anti-Rabbit HRP secondary antibody was used along with Protein Simple luminol and peroxide for chemiluminescent detection. Primary antibody incubation time was increased from 30 minutes to 60 minutes.

Assay [1] concerns the target full-length recombinant human NEK7 (Homo sapiens (Human), UniProt Q8TDX7). Put plainly: NEK7 Enzymatic Assay. In kind it is biochemical. The conditions noted are these: casein substrate, [33P]-ATP, 2 hours at room temperature. An outline of the steps:
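GST-tagged full-length human NEK7 (Sf9-expressed) with 1 mg/mL casein in HEPES pH 7.5/MgCl2 buffer, 1% DMSO; compounds 10 μM–0.5 nM preincubated 20 min at RT. Reaction started with [^33P]-ATP, 2 h at RT, P81 filter radioactivity read; IC50 from % activity remaining versus vehicle.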

Chain of full-length recombinant human NEK7 (Q8TDX7 whole entry): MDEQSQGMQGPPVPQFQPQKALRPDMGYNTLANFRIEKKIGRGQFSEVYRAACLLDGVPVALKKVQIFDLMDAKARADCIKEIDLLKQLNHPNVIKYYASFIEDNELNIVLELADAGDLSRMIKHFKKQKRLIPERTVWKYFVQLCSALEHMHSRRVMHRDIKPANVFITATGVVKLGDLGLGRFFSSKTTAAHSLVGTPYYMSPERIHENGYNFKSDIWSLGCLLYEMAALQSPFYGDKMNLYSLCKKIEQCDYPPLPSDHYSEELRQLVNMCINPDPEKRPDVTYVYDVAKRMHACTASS

On to `Nc1ncnc2c1c(-c1ccc(NC(=O)Nc3cc(C4(C(F)(F)F)CC4)on3)c3ncccc13)cn2C1CC1` [Example I-4, 1-(5-(4-amino-7-cyclopropyl-7H-pyrrolo[2,3-d]pyrimidin-5-yl)quinolin-8-yl)-3-(5-(1-(trifluoromethyl)cyclopropyl)-isoxazol-3-yl)urea], for which the 50% inhibitory concentration (IC50) was over 1000 nM in the assay on IL-1β release and over 2000 nM in assay [1].
On to `Nc1ncnc2c1c(-c1ccc(NC(=O)Nc3cc(C4(C(F)(F)F)CC4)on3)c3cnccc13)cn2C1CC1` [Example I-8, 1-(5-(4-amino-7-cyclopropyl-7H-pyrrolo[2,3-d]pyrimidin-5-yl)isoquinolin-8-yl)-3-(5-(1-(trifluoromethyl)cyclopropyl)-isoxazol-3-yl)urea], for which the IC50 is 100 to 250 nM in the assay on IL-1β release and under 200 nM in assay [1].
Take `CN1CCN(Cc2ccc(NC(=O)Nc3ccc(-c4cn(C5CC5)c5ncnc(N)c45)c4ccncc34)cc2C(F)(F)F)CC1` [Example I-9, 1-(5-(4-amino-7-cyclopropyl-7H-pyrrolo[2,3-d]pyrimidin-5-yl)isoquinolin-8-yl)-3-(4-((4-methylpiperazin-1-yl)-methyl)-3-(trifluoromethyl)-phenyl)urea]: the IC50 in the assay with IL-1β release is under 100 nM; in assay [1], under 200 nM.
On to `CC(C)(C)c1cc(NC(=O)Nc2ccc(-c3cn(C4CC4)c4ncnc(N)c34)n3ccnc23)n(-c2ccccc2)n1` [Example I-11, 1-(5-(4-amino-7-cyclopropyl-7H-pyrrolo[2,3-d]pyrimidin-5-yl)imidazo[1,2-a]pyridin-8-yl)-3-(3-(tert-butyl)-1-phenyl-1H-pyrazol-5-yl)urea], for which the values for the IC50 (in the assay on IL-1β release; in assay [1]) were under 100 nM and under 200 nM, respectively.
The matching figures for `CC(C)(C)c1cc(NC(=O)Nc2ccc(-c3cn(C4CC4)c4ncnc(N)c34)n3ccnc23)on1` [Example I-17, 1-(5-(4-amino-7-cyclopropyl-7H-pyrrolo[2,3-d]pyrimidin-5-yl)imidazo[1,2-a]pyridin-8-yl)-3-(3-(tert-butyl)isoxazol-5-yl)urea]: under 100 nM and under 200 nM.
`Nc1ncnc2c1c(-c1ccc(NC(=O)Nc3cc(C4(C(F)(F)F)CC4)no3)c3nccn13)cn2C1CC1` [Example I-22, 1-(5-(4-amino-7-cyclopropyl-7H-pyrrolo[2,3-d]pyrimidin-5-yl)imidazo[1,2-a]pyridin-8-yl)-3-(3-(1-(trifluoromethyl)-cyclopropyl)isoxazol-5-yl)-urea]: the concentration for half-maximal inhibition (IC50) was under 100 nM in the assay with IL-1β release and under 200 nM in assay [1].
On to `Nc1ncnc2c1c(-c1ccc(NC(=O)Nc3cc(C4(C(F)(F)F)CC4)on3)c3nccn13)cn2C1CC1` [Example I-32, 1-(5-(4-amino-7-cyclopropyl-7H-pyrrolo[2,3-d]pyrimidin-5-yl)imidazo[1,2-a]pyridin-8-yl)-3-(5-(1-(trifluoromethyl)-cyclopropyl)isoxazol-3-yl)-urea], for which the IC50 in the assay with IL-1β release is over 1000 nM; in assay [1], under 200 nM.
For `CN1CCN(Cc2ccc(NC(=O)Nc3ccc(-c4cn(C5CC5)c5ncnc(N)c45)n4ccnc34)cc2C(F)(F)F)CC1` [Example I-34, 1-(5-(4-amino-7-cyclopropyl-7H-pyrrolo[2,3-d]pyrimidin-5-yl)imidazo[1,2-a]pyridin-8-yl)-3-(4-((4-methylpiperazin-1-yl)methyl)-3-(trifluorometh-yl)phenyl)urea], in that order: under 100 nM and under 200 nM.
In the case of `CN1CCC(Oc2ccc(NC(=O)Nc3ccc(-c4cn(C5CC5)c5ncnc(N)c45)n4ccnc34)cc2C(F)(F)F)CC1` [Example I-37, 1-(5-(4-amino-7-cyclopropyl-7H-pyrrolo[2,3-d]pyrimidin-5-yl)imidazo[1,2-a]pyridin-8-yl)-3-(4-((1-methylpiperidin-4-yl)oxy)-3-(trifluorometh-yl)phenyl)urea], the figures for the IC50 (with IL-1β release; in assay [1]) were under 100 nM and under 200 nM, respectively.
For `CN1CCN(Cc2ccc(NC(=O)Nc3ccc(-c4cn(C5CC5)c5ncnc(N)c45)n4cc(C(F)(F)F)nc34)cc2C(F)(F)F)CC1` [Example I-47, 1-(5-(4-amino-7-cyclopropyl-7H-pyrrolo[2,3-d]pyrimidin-5-yl)-2-(trifluoromethyl)-imidazo[1,2-a]pyridin-8-yl)-3-(4-((4-methylpiperazin-1-yl)-methyl)-3-(trifluoromethyl)-phenyl)urea], in that order: under 100 nM and over 2000 nM.
For `CN1CCN(Cc2ccc(NC(=O)Nc3ncc(-c4cn(C5CC5)c5ncnc(N)c45)n4ccnc34)cc2C(F)(F)F)CC1` [Example I-51, 1-(5-(4-amino-7-cyclopropyl-7H-pyrrolo[2,3-d]pyrimidin-5-yl)imidazo[1,2-a]pyrazin-8-yl)-3-(4-((4-methylpiperazin-1-yl)methyl)-3-(trifluorometh-yl)phenyl)urea], in that order: over 1000 nM and over 2000 nM.
`Nc1ncnc2c1c(-c1ccc(NC(=O)Nc3cc(C4(C(F)(F)F)CC4)on3)c3c1CCO3)cn2C1CC1` [Example I-52, 1-(4-(4-amino-7-cyclopropyl-7H-pyrrolo[2,3-d]pyrimidin-5-yl)-2,3-dihydrobenzofuran-7-yl)-3-(5-(1-(trifluorometh-yl)cyclopropyl)isoxazol-3-yl)urea]: the IC50 with IL-1β release was 250 to 1000 nM; in assay [1] it was 200 to 500 nM.
As for `CN1CCN(Cc2ccc(NC(=O)Nc3ccc(-c4cn(C5CC5)c5ncnc(N)c45)c4c3OCC4)cc2C(F)(F)F)CC1` [Example I-53, 1-(4-(4-amino-7-cyclopropyl-7H-pyrrolo[2,3-d]pyrimidin-5-yl)-2,3-dihydrobenzofuran-7-yl)-3-(4-((4-methylpiperazin-1-yl)methyl)-3-(trifluorometh-yl)phenyl)urea], the figures for the IC50 (with IL-1β release; in assay [1]) were under 100 nM and under 200 nM, respectively.
Turning to `CC(C)(C)c1cc(NC(=O)Nc2ccc(-c3cn(C4CC4)c4ncnc(N)c34)c3ccoc23)n(-c2ccccc2)n1` [Example I-62, 1-(4-(4-amino-7-cyclopropyl-7H-pyrrolo[2,3-d]pyrimidin-5-yl)benzofuran-7-yl)-3-(3-(tert-butyl)-1-phenyl-1H-pyrazol-5-yl)urea], the results for the half-inhibitory concentration (IC50) (in the assay with IL-1β release; in assay [1]) were under 100 nM and 500 to 2000 nM, respectively.
For `CC(C)(C)c1cc(NC(=O)Nc2ccc(-c3cn(C4CC4)c4ncnc(N)c34)c3ccoc23)on1` [Example I-63, 1-(4-(4-amino-7-cyclopropyl-7H-pyrrolo[2,3-d]pyrimidin-5-yl)benzofuran-7-yl)-3-(3-(tert-butyl)isoxazol-5-yl)urea], in that order: 250 to 1000 nM and 500 to 2000 nM.
For `Nc1ncnc2c1c(-c1ccc(NC(=O)Nc3cc(C4(C(F)(F)F)CC4)on3)c3occc13)cn2C1CC1` [Example I-65, 1-(4-(4-amino-7-cyclopropyl-7H-pyrrolo[2,3-d]pyrimidin-5-yl)benzofuran-7-yl)-3-(5-(1-(trifluoromethyl)cyclopropyl)-isoxazol-3-yl)urea], in that order: over 1000 nM and 500 to 2000 nM.
For the compound `CN1CCN(Cc2ccc(NC(=O)Nc3ccc(-c4cn(C5CCNCC5)c5ncnc(N)c45)n4ccnc34)cc2C(F)(F)F)CC1` [Example I-133, 1-(5-(4-amino-7-(piperidin-4-yl)-7H-pyrrolo[2,3-d]pyr-imidin-5-yl)imidazo[1,2-a]-pyridin-8-yl)-3-(4-((4-methyl-piperazin-1-yl)methyl)-3-(trifluoromethyl)phenyl)urea], the IC50 in assay [1] was under 200 nM.
The same measure, in the same setting: the same measure for `CN1CCC(n2cc(-c3ccc(NC(=O)Nc4ccc(CN5CCN(C)CC5)c(C(F)(F)F)c4)c4nccn34)c3c(N)ncnc32)CC1` [Example I-134, 1-(5-(4-amino-7-(1-methyl-piperidin-4-yl)-7H-pyrrolo-[2,3-d]pyrimidin-5-yl)imidazo-[1,2-a]pyridin-8-yl)-3-(4-((4-methylpiperazin-1-yl)methyl)-3-(trifluoromethyl)phenyl)urea]: 200 to 500 nM; for `CC(C)n1cc(-c2ccc(NC(=O)Nc3ccc(OC4CCN(C)CC4)c(C(F)(F)F)c3)c3nccn23)c2c(N)ncnc21` [Example I-135, 1-(5-(4-amino-7-isopropyl-7H-pyrrolo[2,3-d]pyrimidin-5-yl)imidazo[1,2-a]pyridin-8-yl)-3-(4-((1-methylpiperidin-4-yl)oxy)-3-(trifluoromethyl)-phenyl)urea]: under 200 nM; for `CCN1CCC(Oc2ccc(NC(=O)Nc3ccc(-c4cn(C(C)C)c5ncnc(N)c45)n4ccnc34)cc2C(F)(F)F)CC1` [Example I-136, 1-(5-(4-amino-7-isopropyl-7H-pyrrolo[2,3-d]pyrimidin-5-yl)imidazo[1,2-a]pyridin-8-yl)-3-(4-((1-ethylpiperidin-4-yl)oxy)-3-(trifluoromethyl)-phenyl)urea]: under 200 nM.
Still for that read-out and setting: the same measure for `CCN1CCC(Oc2ccc(NC(=O)Nc3ccc(-c4cn(C5CCC5)c5ncnc(N)c45)n4ccnc34)cc2C(F)(F)F)CC1` [Example I-137, 1-(5-(4-amino-7-cyclobutyl-7H-pyrrolo[2,3-d]pyrimidin-5-yl)imidazo[1,2-a]pyridin-8-yl)-3-(4-((1-ethylpiperidin-4-yl)oxy)-3-(trifluoromethyl)-phenyl)urea]: under 200 nM.
